Experimental data from US20080014253A1, “Lipid-Based Drug Delivery Systems Containing Unnatural Phospholipase A2 Degradable Lipid Derivatives and the Therapeutic Uses Thereof” (priority 2004, published 2008).
“Also recorded” adds a separate entry of the source.

Key:
[1] = type: physicochemical; conditions: for Main-transition Tm (peak position) / Pre-transition Tm (peak position): multilamellar liposomes, scan rate 20° C./h; for pre-transition of the lipid membrane (Cp-curves): one-component multilamellar liposomes
Procedure: FIG. 3. Heat capacity, CP, obtained using differential scanning calorimetry at a scan rate of 20° C./h for 0.15 mM multilamellar liposomes: (A) 1-O-DPPC′ (left), DPPC (middle), and 1-O-DPPC (right). (B) 1-O-DPPG′ (left), DPPG (middle) and 1-O-DPPG (right).
By replacing the ester linkage in the C-1 position with an ether bond, these unnatural phospholipids can furthermore be used as novel prodrug anticancer lipids to make liposomal microcarriers that can be degraded to active anticancer lysoetherlipids by PLA2 [27]. The lipid prodrug analogs (1-O-DPPC and 1-O-DPPG) were synthesized as described earlier. 1,2-dipalmitoyl-sn-glycero-3-phosphocholine (DPPC), 1,2-dipalmitoyl-sn-glycero-3-phosphoglycerol (DPPG), and 1,2-distearoyl-sn-glycero-3-phosphoethanolamine poly(ethylene glycol)2000 (DSPE-PEG2000) were purchased from Avanti Polar Lipids, AL, USA. Multi- and unilamellar liposomes were hydrated in a HEPES buffer solution (10 mM HEPES, 110 mM KCl, 1 mM NaN3, 30 μM CaCl2, 10 μM NaEDTA, pH 7.5) and prepared as described in previous work. Differential scanning calorimetry was carried out in the upscan mode at a scanrate of 20° C./h using multilamellar liposomes. The PLA2 lag time measurements on 1-O-DPPC′ unilamellar liposomes incorporated with small amounts of 1-O-DPPG′ or DSPE-PEG2000 lipids were performed in the gel-to-fluid main phase transition range and the degree of lipid hydrolysis was analyzed using HPLC techniques.
The heat capacity (Cp) curves obtained using differential scanning calorimetry are shown in FIG. 3 for one-component 1-O-DPPC′ and 1-O-DPPG′ multilamellar liposomes. The Cp-curves show a main peak at 40.1° C. and 40.6° C. reflecting the chain disordering gel-to-fluid main phase transition of the 1-O-DPPC′ and 1-O-DPPG′ lipid membranes, respectively. […] This leads to the formation of low temperature ordered and non-corrugated gel phase (Lβ) that prevails until the unset of the main transition giving rise to a concomitant increase in the integrated melting enthalpy of the main transition (Table 1). Since the 1-O-DPPC′ and 1-O-DPPG′ lipids undergo a transition from an ordered configuration in the low temperature non-corrugated gel phase to a disordered configuration in the high temperature fluid phase without passing through the ripple phase, the integrated melting enthalpy is expected to be higher than for the natural DPPC and DPPG ripple phase forming lipids, which undergo a transition to the fluid phase from a ripple phase with a higher energy than the non-corrugated gel phase. In order to exclude the possibility that the abolished ripple transition is due to having an ether bond in the C-1 position, we have in FIG. 3 also shown Cp-curves obtained on 1-O-DPPC and 1-O-DPPG multilamellar liposomes. Clearly, these Cp-curves show the same characteristic phase behavior as the natural DPPC and DPPG lipids with a pre-transition a few degrees below the main phase transition peak underlining that it is the position of the phosphate head group in the C-3 position on the natural phospholipids that is crucial for ripple formation.

[2] = target: T1, human secretory PLA2 (Homo sapiens, UniProt P14555); test: Hydrolysis of unilamellar liposomes by human secretory PLA2 from human tear fluid; type: biochemical
T1 construct: from tissue; host or cells: freshly prepared human tear fluid
T1 sequence (P14555 21-144): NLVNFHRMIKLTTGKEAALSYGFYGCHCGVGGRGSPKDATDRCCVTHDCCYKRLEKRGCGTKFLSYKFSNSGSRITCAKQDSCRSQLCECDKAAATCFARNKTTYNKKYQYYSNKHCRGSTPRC
Procedure: FIG. 4. Characteristic reaction time profiles at 40° C. for PLA2 hydrolysis of unilamellar. (A) 0.15 mM 1-O-DPPC′ liposomes incubated with 150 nM PLA2 (A. piscivorus piscivorus). (B) 0.15 mM 1-O-DPPG′ liposomes incubated with human secretory PLA2 from 20 μL freshly prepared human tear fluid (B). The PLA2 hydrolysis reaction is monitored by intrinsic fluorescence (solid line) from the enzyme and 90° static light scattering (dashed lines) from the lipid suspension. After adding PLA2 to the equilibrated liposome suspension a characteristic lag time, τ, follows before a sudden increase in the catalytic activity takes place (A).
FIG. 6. (A) PLA2 (A. piscivorus piscivorus) hydrolysis of 1-O-DPPC′ liposomes containing 0 mol % (▪), 2 mol % (▴), and 10 mol % (∘) 1-O-DPPG′ lipids, and 5 mol % (▾) DSPE-PEG2000 polymer lipids determined by HPLC [28]. The percent lipid hydrolysis is determined 1000 s after the unset of the burst. The concentration of the liposomes was 0.15 mM and the concentration of PLA2 was 150 nM. (B) Hydrolysis of 1-O-DPPG′ unilamellar liposomes determined by HPLC [28]. The PLA2 catalyzed lipid hydrolysis is determined as a function of time after addition of 20 μL freshly prepared human tear fluid to 0.15 mM 1-O-DPPG′ liposomes. […]

Compound	Main-transition ΔHm (melting enthalpy) [1]	Pre-transition ΔH (melting enthalpy) [1]	Main-transition Tm (peak position) [1]	Pre-transition Tm (peak position) [1]	pre-transition of the lipid membrane (Cp-curves) [1]	onset of hydrolysis / lag time ([2]; 0.15 mM liposomes, 20 μL human tear fluid, 40° C.)	activity of human secretory PLA2 towards liposomes ([2]; liposomes formed by the lipid)
1-O-hexadecyl-2-hexadecanoyl-sn-glycero-3-phosphoglycerol [1-O-DPPG]	9.1 kcal/mol	0.58 kcal/mol	41.8 °C	34.1 °C	–	–	–
CCCCCCCCCCCCCCCCOC[C@H](COP(=O)([O-])OCC[N+](C)(C)C)OC(=O)CCCCCCCCCCCCCCC [1-O-DPPC, 1-O-hexadecyl-2-hexadecanoyl-sn-glycero-3-phosphocholine]	8.5 kcal/mol	0.84 kcal/mol	42.6 °C	32.0 °C	–	–	–
CCCCCCCCCCCCCCCCOC[C@@H](COC(=O)CCCCCCCCCCCCCCC)OP(=O)([O-])OCC[N+](C)(C)C [1-O-DPPC′, (S)-1-O-hexadecyl-3-hexadecanoyl-glycero-2-phosphocholine]	12.8 kcal/mol	–	40.1 °C	–	abolished	–	–
CCCCCCCCCCCCCCCC(=O)OC[C@H](COP(=O)([O-])OCC[N+](C)(C)C)OC(=O)CCCCCCCCCCCCCCC [DPPC, 1,2-dipalmitoyl-sn-glycero-3-phosphocholine]	8.7 kcal/mol	1.2 kcal/mol	40.5 °C	31.9 °C	–	–	–
CCCCCCCCCCCCCCCC(=O)OC[C@H](COP(=O)(O)OCC(O)CO)OC(=O)CCCCCCCCCCCCCCC (stereo partly drawn) [DPPG, 1,2-dipalmitoyl-sn-glycero-3-phosphoglycerol]	9.8 kcal/mol	1.31 kcal/mol	40.6 °C	34.3 °C	–	–	–
(S)-1-O-hexadecyl-3-hexadecanoyl-glycero-2-phosphoglycerol [1-O-DPPG′]	11.3 kcal/mol	–	40.6 °C	–	abolished	immediate hydrolysis; also recorded: becomes active immediately after addition	high activity; also recorded: superior substrates
